Data reported in patent US6229029A, “11β-aryl substituted 14,17-ethanoestratriens, method for the production of these compounds and their use in the production of medicaments” (Schering Aktiengesellschaft, priority 1997, dated 2001).
pIC50: −log10 of the molar value.

Assays:
estrogen receptors = biological target: T1, estrogen receptors (Homo sapiens, UniProt P03372); assay: Transactivation assay in HeLa cells (partial estrogenic action, rPR-TK); type: cell-based; conditions: rPR-TK reporter, read-out: Agonism HELA (rPR-TK)
T1 construct: expressed in transfected cells; host or cells: HeLa cells
Experimental: The partial estrogenic action was also determined by transactivation assays. HeLa cells were […] with estrogen receptors and a reporter gene, which consists of the estrogen-response element of the progesterone receptor and the CAT-gene. The test was performed as described: Savouret et al., EMBO J. 10, 1875-1883 (1991).

[1] = tested on: trabecular bone (proximal tibia) of ovariectomized rats; assay: Bone studies in ovariectomized rats: trabecular bone surface area (TB/TV), histological, proximal tibia; type: in vivo, rat; conditions: Table 4, proximal tibia, 28 days
Experimental: (§1) 3-month-old female rats are ovariectomized and treated once daily with the test compound immediately after the operation for 28 days. The administration is done subcutaneously in castor oil/benzyl benzoate or arachis oil/ethanol. The animals are sacrificed on the day after the last administration, and femurs, tibiae and uteri are removed. The uteri are weighed, fixed and worked up for histological studies. The determination of the bone density is carried out ex vivo on prepared long bones with use of pQCT (Quantitative Computer Tomography). The measurements are performed at a distance of 5-7 mm from the ball of the joint on the distal femur or the proximal tibia.
As an alternative, the action on the bone is determined by measuring the trabecular bone surface area of the secondary spongiosa in histological preparations of the distal femur or the proximal tibia. The result is expressed as the proportion, in percent, of the trabecular bone surface area in the measured total bone surface area ([…]). The bone density that is measured with use of QCT and the trabecular bone surface area that is determined in the histological section correlate well to one another. A comparison of the two measurement variables is therefore permissible.
About 50% of the bone density of the animals is lost by the ovariectomy. […] In Table 4 and FIG. 2, the results of this test for doses of 0.1-100 μg/animal/day are presented. The bone density was measured on the distal femur; for comparison, the trabecular bone surface area in the proximal tibia was measured. The data that are contained in Table 4 mean specifically:
TB/TV trabecular bone surface area/total bone surface area; histologically determined
For compound B according to the invention, their bone-protecting action was also determined (Table 6). For this purpose, the parameter of TB/TV was determined, which, however, with respect to the informational value for the bone-protecting activity correlates well to the parameter of BMD-qCT that is determined for compounds A and V. This can be ascertained from Table 4; both parameters were determined for compound A.

uterus of infant rats = assay: Anti-uterus growth test in infant rats (antiestrogenic action); type: in vivo, rat; conditions: with 0.3 μg/animal/day 17β-estradiol
Excerpt: The influence of the compounds according to the invention on the uterus was examined in the uterus growth test (estrogenic action) and in the anti-uterus growth test (antiestrogenic action), both performed on infant rats.
The uterus of infant estrogen-substituted rats can be used as a test model to detect a direct action of substances with antiestrogenic properties. The parameter of the estrogenic action is the uterus growth that is induced by estradiol in infant rats and that is inhibited by simultaneous administration of a substance with antiestrogenic action.
The test substances are treated s.c. on 3 successive days (d1-d3) in combination with a substitution dose of 0.3 μg/animal/day of 17β-estradiol. As a positive control, 17β-estradiol alone is used; the vehicle group is used as a negative control. On day 4 (d4), the animals are sacrificed, uteri and vaginae are prepared outside and weighed. The organ weights are converted into mg/100 g of body weight, and then the mean and the standard deviation for each dosage are calculated. The inhibition of the uterus or vaginal growth that is induced by 17β-estradiol is indicated in % as inhibition.

[2] = tested on: bone (distal femur / proximal tibia) of ovariectomized rats; assay: Bone studies in ovariectomized rats: bone density by pQCT; type: in vivo, rat; conditions: for % of Action of E2 (bone density femur) / Bone Density Femur: Table 4, distal femur; for % of Action of E2 (bone density femur) / Bone Density Femur / Bone Density / % of Action of E2 (bone density): 28 days; for Bone Density / % of Action of E2 (bone density): Table 5, proximal tibia
human estrogen receptor = biological target: T2, human estrogen receptor (Homo sapiens, UniProt P03372); assay: Transactivation assay in HeLa cells (antiestrogenic action, vit-TK-CAT reporter); type: cell-based; conditions: in the presence of 0.1 nM estradiol, read-out: Antagonism IC50, HELA
T2 construct: expressed in transfected cells; host or cells: HeLa cells
T2 sequence (P03372 1-595): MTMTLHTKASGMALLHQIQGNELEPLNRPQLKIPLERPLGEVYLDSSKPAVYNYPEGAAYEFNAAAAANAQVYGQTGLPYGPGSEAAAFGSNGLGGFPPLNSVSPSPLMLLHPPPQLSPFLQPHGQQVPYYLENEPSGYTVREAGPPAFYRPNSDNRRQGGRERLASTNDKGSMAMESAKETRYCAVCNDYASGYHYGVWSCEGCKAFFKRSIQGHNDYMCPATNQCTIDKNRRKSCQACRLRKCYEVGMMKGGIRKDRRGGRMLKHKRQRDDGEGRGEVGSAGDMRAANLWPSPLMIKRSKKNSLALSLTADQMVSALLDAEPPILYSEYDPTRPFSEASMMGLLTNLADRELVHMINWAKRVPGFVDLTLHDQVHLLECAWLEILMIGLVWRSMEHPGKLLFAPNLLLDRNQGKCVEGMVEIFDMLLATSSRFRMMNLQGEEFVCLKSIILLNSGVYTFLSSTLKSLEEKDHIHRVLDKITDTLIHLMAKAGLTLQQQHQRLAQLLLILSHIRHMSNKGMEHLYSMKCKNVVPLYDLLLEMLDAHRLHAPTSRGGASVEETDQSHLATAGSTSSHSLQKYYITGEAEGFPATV

[3] = tested on: uterus of ovariectomized rats; assay: Uterus weight in ovariectomized rats of the bone studies; type: in vivo, rat
Experimental: as §1

bone / uterus of rats = assay: Dissociation of bone action/uterus action (FIG. 7); type: in vivo, rat; conditions: bone action vs uterus epithelial height, relative to 17β-estradiol
Excerpt: There, for compounds A, B and V, their bone-protecting actions are compared to the action of estrogen on the uterus (parameter: uterus epithelial height) as a function of dosage, in each case relative to the action of 17β-estradiol.

## C[C@]12C[C@H](c3ccc(OCCCCCS(=O)(=O)Cc4ccccn4)cc3)[C@@H]3c4ccc(O)cc4CC[C@H]3[C@]13CC[C@@]2(O)CC3 [Compound A]
Estrogen receptors
  Emax: 16%
[1]; 0.1 μg/animal/day s.c.
  TB/TV (Tibia): 17.2%
[1]; 1 μg/animal/day s.c.
  % of Action of E2 (TB/TV tibia): 17%
  TB/TV (Tibia): 18.9%
[1]; 10 μg/animal/day s.c.
  % of Action of E2 (TB/TV tibia): 35%
  TB/TV (Tibia): 22.5%
[1]; 100 μg/animal/day s.c.
  % of Action of E2 (TB/TV tibia): 62%
  TB/TV (Tibia): 27.0%
[1]; cell empty for 17β-estradiol, 0.1 μg/animal/day s.c.
  % of Action of E2 (TB/TV tibia): 4.1%
Uterus of infant rats; 0.1 mg/kg s.c.
  Uterus Weight % of Inhibition: 33%
Uterus of infant rats; 1 mg/kg s.c.
  Uterus Weight % of Inhibition: 88%
Uterus of infant rats; 10 mg/kg s.c.
  Uterus Weight % of Inhibition: 121%
[2]; 0.1 μg/animal/day s.c.
  % of Action of E2 (bone density femur): 14%
  Bone Density Femur: 296.4 mg Ca/ccm
[2]; 1 μg/animal/day s.c.
  % of Action of E2 (bone density femur): 31%
  Bone Density Femur: 309.6 mg Ca/ccm
[2]; 10 μg/animal/day s.c.
  % of Action of E2 (bone density femur): 60%
  Bone Density Femur: 331.3 mg Ca/ccm
[2]; 100 μg/animal/day s.c.
  % of Action of E2 (bone density femur): 50%
  Bone Density Femur: 324.1 mg Ca/ccm
  Bone Density: 361.8 mg Ca/ccm
[2]; 500 μg/animal/day s.c.
  % of Action of E2 (bone density): 49%
  Bone Density: 336.3 mg Ca/ccm
[2]; 2000 μg/animal/day s.c.
  % of Action of E2 (bone density): 65%
  Bone Density: 348.8 mg Ca/ccm
[2]; above 100 μg/animal/day, proximal tibia
  effect of dose increase on bone action (in words): can no longer be increased by increasing the dose
[2]; dose range between 10 and 100 μg/animal/day s.c.
  protective action in comparison to 17β-estradiol: 50-60%
[2]; ovariectomized rats, 0.1-100 μg/animal/day
  degradation of bone density after ovariectomy (in words): prevented or inhibited
[2]; proximal tibia, s.c.
  dose with which an action of about 80% of 17β-estradiol on trabecular bone is achieved: 100 μg/animal/day
[2]; proximal tibia, vs compound V
  potency relative to comparison compound V, bone-protecting action: 3 factor
Human estrogen receptor
  pIC50: 9.40
[3]; FIG. 3, test of Table 4, 0.1-100 μg/animal/day
  stimulation of uterus weight (in words): stimulates the uterus weight, but at most does so marginally
[3]; FIG. 5, test of Table 5, all tested dosages 100-2000 μg/animal/day
  stimulation of uterus weight (in words): stimulates the uterus weight only marginally in all tested dosages
Bone / uterus of rats
  dissociation of bone-protecting action from estrogen action on the uterus (in words): most dissociated
